Key:
HUVEC cells = test: Endothelial cell proliferation assay (CCK-8); type: cell-based, Human; details: Homo sapiens, 18 hours exposure, CCK-8 assay, n = 9
Procedure: Anti-angiogenic drugs were screened in a concentration gradient in the HUVEC culture assay. […] Cell proliferation was assessed using a CCK-8 assay (Dojindo). Statistical analysis by two-way Anova. Error represents the standard error of the mean.
HUVEC cells were purchased from ATCC (Manassas, VA) and cultured as previously described. No further authentication was performed. Cells were seeded at 6.5 × 10^4 cells per well in 100 μL of medium per well. Drugs were diluted in prewarmed DMEM. Serial dilutions were performed from 1000–0.1 nM. The cells were left to grow for 18 hours with exposure to vehicle control (DMSO) or drugs. Experiments were done in triplicate each time. Cellular proliferation was assessed using a CCK-8 assay (Dojindo, Rockville, MD). All plates were read at 450 nm.

chicken embryos = test system: chicken embryos
Procedure: We then administered the compounds to developing chicken embryos to observe any teratogenic effects. […] At 48 hours post drug application both the survival rate and the incidence of defects were analyzed. A range of concentrations was tested to determine the effects and optimal concentration that was not 100% lethal.
Fertilized white leghorn chicken embryos purchased from Henry Stewart Ltd. (Herefordshire, United Kingdom) were maintained in an incubator as described previously. At Hamburger and Hamilton stage 18–20 (E2.5-3)[54] the eggs were windowed and the embryos were prepared for drug exposure. To establish a dose response the drugs were applied once to the embryos and growth was monitored as described previously. In a second set of experiments, filter paper squares were cut 100 μm × 100 μm and soaked in the compound of interest for 10 minutes. While the filter paper squares absorbed the solution, embryonic membranes were removed and the sponge was then placed onto the limb bud. The eggs were sealed with tape and returned to an incubator. The embryos were checked daily for developmental defects and to ensure the filter paper squares remained in place. Control embryos were treated with 100 μL PBS with 0.1% DMSO. Embryos were removed from the eggs and fixed in 5% TCA at 4 degrees for 24 hours. Embryos were then washed in alcian blue for 8 hours, and placed in acid ethanol over night before being dehydrated in 100% ethanol for three one hour treatments. The tissue was then cleared in methyl salicylate. Cartilage was imaged and subsequently measured using a graticule scale and ImageJ. A minimum of 8 embryos was used per drug, per concentration. All animal work was licensed and carried out in accordance with and with approval of UK Home Office and Institutional ethical and welfare guidelines.

[1] = test system: developing limb bud of chicken embryos; test: Drug-soaked filter paper square placed on the developing limb bud of chicken embryos; type: in vivo; details: filter paper square soaked in drug, HH St 18–20
From the text: Given the potency of these drugs and the resulting embryonic lethality we focused our attention on how the drugs affect limb development. The developing limb bud is a well studied morphological assay[22][41][42] ideal for understanding mechanisms of embryogenesis and how drugs influence this process. Moreover, other anti-angiogenic drugs like thalidomide and valproate cause limb defects. […] We therefore established a method where a small filter paper square soaked in the drug of interest could be placed directly onto the limb tissue of the embryo, thus avoiding or minimalizing exposure of the drug to other developing tissue/structures and retaining high viability. Filter paper squares were soaked for 10 minutes prior to removal of the embryonic membrane of HH St 18–20 (E2.5-E3) chicken embryos, then placed over the developing limb bud. Filter paper squares soaked in 0.1% DMSO had no effect on limb outgrowth.
The tissue was then cleared in methyl salicylate.

[2] = test system: fli1:EGFP zebrafish embryos; test: fli1:EGFP zebrafish embryo exposure: survival and intersegmental vessel development; type: in vivo
Procedure: We then examined the extent and nature of the anti-angiogenic effects of the compounds using transgenic fli1:EGFP zebrafish embryos. The vasculature of these fish is tagged with EGFP and the transparency of the zebrafish allows for visualization of the forming blood vessels and any effect of anti-cancer drugs on their development over time (Fig. 4). A known anti-angiogenic and teratogenic compound (CPS49) was screened alongside the drugs as a positive control at 10 μg/mL (30 μM), a previously established anti-angiogenic concentration.
fli1:EGFP zebrafish were obtained from the Zebrafish international Resource Centre[29] and maintained in an approved aquarium habitat at 28 °C. At 24 hours post fertilization (hpf) the embryos were checked for GFP expression using a fluorescent microscope and manually dechorionated with forceps, exposed to either a vehicle control, or an anti-angiogenic anti-cancer compound (at 24 hpf) for 24 hours and imaged at 48 hpf. At this point the embryos were anaesthetized in 0.1% tricaine and the length and number of intersegmental vessels (ISV) were quantified as previously described. A minimum of 10 embryos were screened per drug, per concentration, and experiments were performed in triplicate.

[3] = human; cited from earlier work
Mouse = details: cited from earlier work

CO[C@@H]1[C@H](OC(=O)NC(=O)CCl)CC[C@]2(CO2)[C@H]1[C@@]1(C)O[C@@H]1CC=C(C)C [TNP-470]
IC50 (HUVEC cells): < 0.01 µM | Defects produced in chicken embryos (chicken embryos; Table 1 summary): Embryolethality, cranial hemorrhaging, micropthalmia, limb defects, spine | defects observed in treated embryos (chicken embryos; global treatment, surviving embryos): twisting of the spinal cord | effect on limb after direct application to limb bud [1]: Tissue was necrotic-looking | treated zebrafish killed ([2]; 200 μg/mL): 90% | vessel outgrowth ([2]; 200 μg/mL): reducing vessel outgrowth | effect at low doses ([2]; <200 μg/mL): little effect | relative potency in reducing vessel outgrowth ([2]; concentration gradient, within 24 hours of drug exposure): no effect until 200 μg/mL | Clinical Toxicities [3]: Neurotoxicity | Defects produced (Mouse; Mouse/Mice): Complete failure of embryonic growth | Systemic exposure (AUC) compared to human exposure (Mouse; Mouse/Mice): Below human | effect during pregnancy in mouse models (Mouse): anti-angiogenic, disrupting newly developing blood vessels in the placenta and embryonic eye
